Assay results: patent US7732429B2 (Trustees of Tufts College, priority 1994, dated 2010)

Tests used:
E. coli DI-299 (Tet A) = assay: MIC/MLC chart, analog with and without doxycycline; type: cell-based; design: key to growth/killing, Analog + Doxy / growth/killing, Doxy Control / growth/killing, Analog Control / growth in MIC/MLC chart: +=growth; 0=no growth (MIC); ↓=killing; ? =99.9% killing (MLC); □=no growth, but no microbiologic testing;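 further: bacterial growth inhibition and killing in broth, each agent tested alone or combined with doxycycline across two-fold serial dilutions, overnight incubation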
E. faecalis 211 (Tet M) = assay: MIC/MLC chart, analog with and without doxycycline; type: cell-based
S. aureus 4250 (Tet K) = assay: MIC/MLC chart, analog with and without doxycycline; type: cell-based
E. faecalis 158 (Tet L) = assay: MIC/MLC chart, analog with and without doxycycline; type: cell-based
[1] = system: E. faecalis Tc^r (L) ATCC9790r/Tell.); assay: susceptibility testing MIC/MLC, drug alone; type: cell-based; details: Tc^r (L) ATCC9790r/Tell.), drug alone
[2] = system: E. faecalis Tc^s (ATCC9790r); assay: susceptibility testing MIC/MLC, drug alone; type: cell-based
[3] = system: E. coli Tc^s (MI 308-226); assay: susceptibility testing MIC/MLC, drug alone; type: cell-based; details: Tc^s (MI 308-226), drug alone; for MLC: kills 99.9%
efflux protein = target: T1, efflux protein (Escherichia coli, UniProt P02980); assay: everted membrane vesicle assay, blocking activity of 13-S-derivatives; type: biochemical; details: blocking activity against the efflux protein, everted membrane vesicle assay
T1 sequence (P02980 1-401): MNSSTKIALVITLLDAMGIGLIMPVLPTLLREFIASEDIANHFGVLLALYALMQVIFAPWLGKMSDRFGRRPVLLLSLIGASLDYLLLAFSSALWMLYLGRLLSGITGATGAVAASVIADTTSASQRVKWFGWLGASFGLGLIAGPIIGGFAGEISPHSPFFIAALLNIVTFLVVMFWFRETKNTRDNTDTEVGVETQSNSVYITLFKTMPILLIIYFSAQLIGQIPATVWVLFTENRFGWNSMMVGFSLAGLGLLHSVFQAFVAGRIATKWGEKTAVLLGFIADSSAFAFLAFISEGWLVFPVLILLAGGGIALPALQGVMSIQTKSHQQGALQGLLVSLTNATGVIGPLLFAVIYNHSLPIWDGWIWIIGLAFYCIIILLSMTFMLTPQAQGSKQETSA

[4] = system: E. coli Class B Tc^r (DI-209); type: cell-based; details: drug alone; for MLC: kills 99.9%
[5] = system: E. coli Class A Tc^r (DI-299); type: cell-based; details: drug alone; for MLC: kills 99.9%
[6] = system: E. faecalis Tc^r(M) (ATCC09790r/TelM); type: cell-based; details: drug alone
[7] = Doxy Control: doxycycline alone 1.56 μg/ml
[8] = Doxy Control: doxycycline alone 3.12 μg/ml
[9] = Doxy Control: doxycycline alone 6.25 μg/ml
[10] = Doxy Control: doxycycline alone 12.5 μg/ml

SMILES: C[C@H]1c2cccc(O)c2C(O)=C2C(=O)[C@]3(O)C(O)=C(C(N)=O)C(=O)[C@@H](N(C)C)[C@@H]3[C@@H](O)[C@@H]21 [Doxy, Doxycycline, reference compound]
- growth in MIC/MLC chart (E. coli DI-299 (Tet A); [7]): +
- growth in MIC/MLC chart (E. coli DI-299 (Tet A); [8]): +
- growth in MIC/MLC chart (E. coli DI-299 (Tet A); [9]): +
- growth in MIC/MLC chart (E. coli DI-299 (Tet A); [10]): +
- growth in MIC/MLC chart (E. coli DI-299 (Tet A); Doxy Control: doxycycline alone 25.0 μg/ml): +
- growth/killing, Doxy Control (E. coli DI-299 (Tet A); Doxy alone 1.56 μg/ml): +
- growth/killing, Doxy Control (E. coli DI-299 (Tet A); Doxy alone 3.12 μg/ml): +
- growth/killing, Doxy Control (E. coli DI-299 (Tet A); Doxy alone 6.25 μg/ml): +
- growth/killing, Doxy Control (E. coli DI-299 (Tet A); Doxy alone 12.5 μg/ml): +
- growth/killing, Doxy Control (E. coli DI-299 (Tet A); Doxy alone 25.0 μg/ml): +
- growth in MIC/MLC chart (E. faecalis 211 (Tet M); [7]): +
- growth in MIC/MLC chart (E. faecalis 211 (Tet M); [8]): +
- growth in MIC/MLC chart (E. faecalis 211 (Tet M); [9]): +
- growth in MIC/MLC chart (E. faecalis 211 (Tet M); [10]): +
- growth/killing, Doxy Control (E. faecalis 211 (Tet M); Doxy alone 1.56 μg/ml): +
- growth/killing, Doxy Control (E. faecalis 211 (Tet M); Doxy alone 3.12 μg/ml): +
- growth/killing, Doxy Control (E. faecalis 211 (Tet M); Doxy alone 6.25 μg/ml): +
- growth/killing, Doxy Control (E. faecalis 211 (Tet M); Doxy alone 12.5 μg/ml): +
- growth in MIC/MLC chart (S. aureus 4250 (Tet K); [7]): +
- growth in MIC/MLC chart (S. aureus 4250 (Tet K); [8]): +
- growth in MIC/MLC chart (S. aureus 4250 (Tet K); [9]): +
- growth in MIC/MLC chart (S. aureus 4250 (Tet K); [10]): +
- growth/killing, Doxy Control (S. aureus 4250 (Tet K); Doxy alone 1.56 μg/ml): +
- growth/killing, Doxy Control (S. aureus 4250 (Tet K); Doxy alone 3.12 μg/ml): +
- growth/killing, Doxy Control (S. aureus 4250 (Tet K); Doxy alone 6.25 μg/ml): +
- growth/killing, Doxy Control (S. aureus 4250 (Tet K); Doxy alone 12.5 μg/ml): +
- growth in MIC/MLC chart (E. faecalis 158 (Tet L); [7]): +
- growth in MIC/MLC chart (E. faecalis 158 (Tet L); [8]): +
- growth in MIC/MLC chart (E. faecalis 158 (Tet L); [9]): +
- growth/killing, Doxy Control (E. faecalis 158 (Tet L); Doxy alone 1.56 μg/ml): +
- growth/killing, Doxy Control (E. faecalis 158 (Tet L); Doxy alone 3.12 μg/ml): +
- growth/killing, Doxy Control (E. faecalis 158 (Tet L); Doxy alone 6.25 μg/ml): +

SMILES: CC(C)SCC1c2cccc(O)c2C(=O)C2=C(O)C3(O)C(=O)C(C(N)=O)=C(O)C(N(C)C)C3C(O)C21 (stereo not drawn) [Isopropyl]
- MIC [1]: 3 ± 1 µg
- MIC [2]: 3 ± 1 µg
- MIC [3]: 22 ± 2 µg
- MLC [3]: 50 µg
- Ki (efflux protein): 0.771 µM
- MIC [4]: 35 ± 6 µg
- MLC [4]: 46 ± 16 µg
- MIC [5]: 45 ± 6 µg
- MLC [5]: 60 µg

SMILES: CCCCCCCCCCSCC1c2cccc(O)c2C(=O)C2=C(O)C3(O)C(=O)C(C(N)=O)=C(O)C(N(C)C)C3C(O)C21 (stereo not drawn) [Decyl]
- Ki (efflux protein): 8.0 µg/mL

SMILES: CCCCCCSCC1c2cccc(O)c2C(=O)C2=C(O)C3(O)C(=O)C(C(N)=O)=C(O)C(N(C)C)C3C(O)C21 (stereo not drawn) [Hexyl]
- Ki (efflux protein): 5.53 µM

SMILES: CN(C)C1C(O)=C(C(N)=O)C(=O)C2(O)C(O)=C3C(=O)c4c(O)cccc4C(C)(O)C3CC12 (stereo not drawn) [Tetracycline, 4-(Dimethylamino)-1,4,4a,5,5a,6-11,12a-octahydro-3,6,10,12,12a-pentahydroxy-6-methyl-1-11-dioxo-2-naphthacenecarboxamide, reference compound]
- MIC [1]: 90 ± 10 µg
- MIC [2]: 0.25 µg
- MIC [3]: 0.6 ± 0.26 µg
- MLC [3]: 40 ± 0.26 µg
- MIC [6]: 100 µg
- Ki (efflux protein): 9 to 18 µM
- MIC [4]: >200 µg
- MLC [4]: >200 µg
- MIC [5]: 150 ± 0.25 µg
- MLC [5]: 200 µg

SMILES: CC(C)CSCC1c2cccc(O)c2C(=O)C2=C(O)C3(O)C(=O)C(C(N)=O)=C(O)C(N(C)C)C3C(O)C21 (stereo not drawn) [Isobutyl]
- Ki (efflux protein): 0.188 µM
